Data reported in article PMC8116058, “De novo macrocyclic peptides dissect energy coupling of a heterodimeric ABC transporter by multimode allosteric inhibition” (eLife, 2021).

Tests used:
[1] = tested on: wild-type TmrAB; assay: Nucleotide occlusion, wild-type TmrAB; assay type: biochemical, Thermus thermophilus; settings: TmrAB 2 µM; CP^F 4 µM or orthovanadate 1 mM; ATP 1 mM traced with [α32P]-ATP; 5 min 45°C; normalized to vanadate-trapped state
Method: Figure 5. […] (A, B) CP6^F (A) or CP13^F (B, 50 nM each) were incubated with increasing concentrations of detergent-solubilized inward-facing TmrAB (in the absence of Mg-ATP) or outward-facing TmrA^EQB, which was trapped with Mg-ATP (1 mM) for 5 min at 45°C as described ([Hofmann et al., 2019]; [Stefan et al., 2020]). Immediately after, the fluorescence anisotropy was assayed at λex/em = 485/520 nm. The difference in fluorescence polarization was normalized to free and fully bound CP^F. Data were fitted by a one-site binding model. […] TmrAB (2 µM each) were mixed with CP^Fs (4 µM), ATP (1 mM, traced with [α^32P]-ATP), and MgCl2 (5 mM) for 5 min at 4°C or 45°C. Cold ATP (10 mM) was added, and freely exchangeable nucleotides were removed by rapid gel filtration. Occluded nucleotides were analyzed by thin layer chromatography and autoradiography. Representative radiograms for independent triplicates are shown. (D) Stably occluded nucleotides, [α^32P]-ATP and [α^32P]-ADP, were quantified by autoradiography. Data were normalized to the vanadate-trapped state. In (A, B, D), mean values ± SD (n = 3) are shown. Figure 5—source data 1. Source Data for Figure 5. Figure 5—figure supplement 1. […] (A) CP^Fs (50 nM each) were incubated with increasing concentrations of detergent-solubilized IF TmrAB in the inward-facing (IF) conformation (absence of Mg-ATP) or TmrA^EQB populated in the outward-facing (OF) conformation, which was trapped in the OF conformation by Mg-ATP (1 mM) after 5 min incubation at 45°C. The difference in fluorescence polarization was normalized to unbound (0%) and 100% bound CP^F. Data were fitted by a one-site binding model. Fluorescence anisotropy was recorded at λex/em = 485/520 nm. […] TmrA^EQB (2 µM) were incubated in the absence and presence of CP^Fs (4 µM each), ATP (1 mM, traced with [α^32P]-ATP), and MgCl2 (5 mM) for 5 min at 4°C or 45°C. Cold ATP (10 mM) was added, and free nucleotides were removed by rapid gel filtration. Occluded nucleotides were analyzed by thin layer chromatography and autoradiography. Representative radiograms for independent triplicates are shown. […] Figure 5—figure supplement 1—source data 1.
We also examined the impact of CP^Fs on the IF-to-OF transition of wild-type TmrAB induced by ATP binding through nucleotide occlusion (stable trapping) as the readout. We induced the IF-to-OF switch with radiotraced [α^32P]-ATP for 5 min at 45°C in the presence and absence of CPs and removed unbound nucleotides by rapid gel filtration. Subsequently, the occluded nucleotides were identified and quantified by thin layer chromatography and autoradiography (Figure 5C, D).
Detergent-solubilized TmrAB (2 µM) were incubated with ATP (1 mM) traced with [α^32P]-ATP (Hartmann Analytic), MgCl2 (5 mM), CP^Fs (4 µM), or orthovanadate (1 mM) for 5 min at 45°C. Cold ATP (10 mM) was added, and unbound nucleotides were removed by rapid gel filtration (Bio-Spin columns P-30, Bio-Rad). ATP (10 mM) was added, and samples were spotted onto polyethyleneimine cellulose plates (Merck Millipore). Thin-layer chromatography was performed using 0.75 M KH2PO4 pH 3.4.

[2] = biological target: T1, TmrAB reconstituted in liposomes (Thermus thermophilus, UniProt Q72J04+Q72J05); assay: Filter-based transport assay, CP^Fs tested as substrates; assay type: biochemical; settings: TmrAB 0.4 µM in liposomes, C4F 3 µM or CP^F 1 µM, 5 min 45°C
T1 sequence (Q72J05 1-600): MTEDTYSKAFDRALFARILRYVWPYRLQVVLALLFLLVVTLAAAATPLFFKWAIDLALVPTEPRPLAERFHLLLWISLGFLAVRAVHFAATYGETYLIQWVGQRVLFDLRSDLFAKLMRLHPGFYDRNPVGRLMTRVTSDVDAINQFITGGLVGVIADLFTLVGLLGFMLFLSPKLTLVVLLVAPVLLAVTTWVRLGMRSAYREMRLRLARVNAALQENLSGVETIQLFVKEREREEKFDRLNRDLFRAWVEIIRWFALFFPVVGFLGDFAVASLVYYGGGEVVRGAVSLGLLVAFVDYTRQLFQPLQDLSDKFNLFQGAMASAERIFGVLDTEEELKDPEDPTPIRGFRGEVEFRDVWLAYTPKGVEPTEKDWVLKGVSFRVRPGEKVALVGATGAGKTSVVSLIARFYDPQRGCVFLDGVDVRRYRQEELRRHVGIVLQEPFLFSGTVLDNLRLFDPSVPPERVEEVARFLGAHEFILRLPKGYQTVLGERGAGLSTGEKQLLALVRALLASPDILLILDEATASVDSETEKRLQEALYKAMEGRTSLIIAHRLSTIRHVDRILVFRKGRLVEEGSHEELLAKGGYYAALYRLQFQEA
T1 sequence (Q72J04 1-578): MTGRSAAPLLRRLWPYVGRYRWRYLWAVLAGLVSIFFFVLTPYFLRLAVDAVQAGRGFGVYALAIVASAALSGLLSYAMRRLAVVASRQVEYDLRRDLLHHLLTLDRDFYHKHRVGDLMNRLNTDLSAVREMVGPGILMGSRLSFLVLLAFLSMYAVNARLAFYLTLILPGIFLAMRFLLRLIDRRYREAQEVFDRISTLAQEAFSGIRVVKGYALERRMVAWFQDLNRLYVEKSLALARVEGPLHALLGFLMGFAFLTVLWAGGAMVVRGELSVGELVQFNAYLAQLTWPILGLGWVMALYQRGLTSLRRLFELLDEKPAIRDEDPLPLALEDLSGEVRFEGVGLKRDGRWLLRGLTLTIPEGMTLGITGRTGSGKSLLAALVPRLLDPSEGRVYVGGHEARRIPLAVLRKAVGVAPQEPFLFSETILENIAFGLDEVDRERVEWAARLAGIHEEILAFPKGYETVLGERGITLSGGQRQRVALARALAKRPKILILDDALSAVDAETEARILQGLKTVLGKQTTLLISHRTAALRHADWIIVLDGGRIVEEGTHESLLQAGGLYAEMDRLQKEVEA
Source text: In order to investigate the functional impact of CPs, we examined the effect of the CPs on ATP hydrolysis and substrate transport of TmrAB (Figure 3A). We reconstituted TmrAB in liposomes and first assayed the ATPase activity. […] We next set out to investigate peptide transport by TmrAB using a filter-based transport assay. To investigate whether CPs are recognized as substrates by TmrAB, we added fluorescein-labeled CP^Fs and examined ATP-dependent translocation. In contrast to the linear substrate peptide C4F, none of the CP^Fs were transported by TmrAB (Figure 3C). Next, we examined ATP-dependent transport of C4F peptides in the presence and absence of the different CPs.
Figure 3. CP^Fs are potent inhibitors of ATP turnover and substrate transport. (A) Experimental scheme of ATP hydrolysis and peptide transport by TmrAB. (B) CP^Fs inhibit ATP hydrolysis. TmrAB in liposomes (100 nM) was incubated with ATP (2 mM, traced with [γ^32P]-ATP), and MgCl2 (5 mM) in the presence and absence of CP^Fs (1 µM) for 10 min at 45°C. Autohydrolysis was determined in the absence of TmrAB, and background turnover was conducted in the presence of EDTA (10 mM). Release of [γ^32P] was quantified by thin layer chromatography. (C) CP^Fs are not transported by TmrAB. TmrAB (0.4 µM) reconstituted in liposomes was incubated with C4F peptide (3 µM) or CP^Fs (1 µM) in the presence of ATP/ADP (3 mM) and MgCl2 (5 mM) for 5 min at 45°C. Since CP^Fs were dissolved in maximal 0.5% (v/v) of DMSO, C4F plus 0.5% DMSO served as control. Proteoliposomes were washed on filter plates, and transported peptides were quantified at λex/em = 485/520 nm. (D) Inhibition of substrate translocation. TmrAB in liposomes (0.4 µM) were incubated with C4F peptide (3 µM), ATP/ADP (3 mM), and MgCl2 (5 mM) in the presence and absence of CP^Fs (1 µM) for 15 min at 45°C. Transported peptides were quantified as described in (C). In (B–C), mean values ± SD (n = 3) are shown. Figure 3—source data 1. Source data for Figure 3.
TmrAB in liposomes (0.4 µM) were incubated with ATP/ADP (3 mM), MgCl2 (5 mM), C4F peptide (3 µM), and CP^Fs (1 µM) for 15 min at 45°C. […] Proteoliposomes were solubilized by adding SDS (1% [v/v]) in transport buffer for 10 min at 20°C. Transported peptides were quantified at λex/em = 485/520 nm using a microplate reader (CLARIOstar, BMG LABTECH).

[3] = tested on: TmrAB; assay: Competition of C4F peptide binding by CP^Bs (fluorescence anisotropy); set-up: species or system Thermus thermophilus
Source text: (§1) To elucidate the mechanistic basis for the inhibition of ATP hydrolysis and substrate transport, we investigated the effects of CPs on substrate binding. In the first approach, fluorescent CP^Fs were used as reporters in fluorescence polarization. […] In addition, we examined the impact of CP^Bs on ATP binding to TmrAB by scintillation proximity assays (SPA) (Figure 4C). […] Taken together, CPs are high-affinity allosteric inhibitors of TmrAB that leave ATP binding and substrate interaction largely unaffected, while impairing ATP hydrolysis and substrate translocation across the membrane.
(§2) Figure 4. […] (A) CP^Fs binding TmrAB is not affected by substrate peptide binding. […] For competition, C4^ATTO655 peptide (2 µM) or R9LQK peptide (200 µM) were added. (B) Binding of C4F peptide is not affected by CP^Bs. C4F peptides (50 nM) were mixed with TmrAB (4 µM), and fluorescence anisotropy was monitored as described in (A). For competition, C4^ATTO655 (10 µM) or CP^Bs (6 µM) were added. […] TmrAB (0.2 µM) were immobilized on SPA beads and incubated with ATP (3 μM, traced with ^3H-ATP) in the presence and absence of CP^Bs (1 µM each) for 30 min on ice. ATP binding was monitored by SPA. Background values were determined after releasing TmrAB complexes from the beads by adding imidazole (200 mM). The background signal in the absence of CP^Bs was set to 0 cpm. […] As this is an equilibrium experiment, this can be rationalized by the fact that CP13 stabilizes the ATP-bound OF conformer. Figure 4—source data 1. Source data for Figure 4.
(§3) To determine equilibrium binding constants, CP^Fs (50 nM) were incubated with increasing concentrations of TmrAB-containing or empty liposomes. To probe the conformational selectivity, CP^Fs (50 nM) were mixed with detergent-solubilized IF TmrAB or OF TmrA^EQB. Before, OF TmrA^EQB was nucleotide-trapped by incubation with ATP (1 mM) and MgCl2 (3 mM) in the absence of CP^Fs for 5 min at 45°C. […] For peptide competition studies, RRYC^fluoresceinKSTEL (C4F, 50 nM) were incubated with detergent-solubilized TmrAB (4 µM), CP^Bs (6 µM), or C4^ATTO655 (10 µM). […] Fluorescence anisotropy was analyzed at λex/em of 485/520 nm using a microplate reader (CLARIOstar, BMG LABTECH). Fluorescence anisotropy was calculated using:(1) r=I||−I⊥/I||+2⋅I⊥ with I||: parallel intensity and I⊥: perpendicular intensity. Binding of CP^Fs were fitted by a one-site binding model (Langmuir 1:1) using:(2) Y=Bmax∙[L]/KD+[L] with Y: binding, Bmax: maximal binding, KD: equilibrium dissociation constant, and [L]: ligand concentration. Data represent mean ± SD from three experiments.

[4] = tested on: TmrAB; assay: Competition of CP^F binding by substrate peptides (fluorescence anisotropy); set-up: species or system Thermus thermophilus; settings: C4^ATTO655 2 µM or R9LQK 200 µM, above their KD values
Source text: as §1, §2, §3

## [O]=[V]([O-])([O-])[O-] [Vanadate, orthovanadate, reference compound]
[1]
  Occluded nucleotides, ADP: 56.67%
  Occluded nucleotides, ATP: 62.96%

## RRYC^fluoresceinKSTEL [C4F, reference compound]
[2]; ADP 3 mM (background)
  Transported peptide: 0.00 µmol·g/min
[2]; ATP 3 mM
  Transported peptide: 1.64 µmol·g/min
[3]; listed as -: baseline of C4F 50 nM
  Bound C4F peptide, fluorescence anisotropy: 0.023
[3]; listed as C4F: C4F 50 nM + TmrAB 4 µM, no competitor
  Bound C4F peptide, fluorescence anisotropy: 0.129

## RRYC^ATTO655KSTEL [C4^ATTO655, reference compound]
[4]
  Effect of transported peptides on CP^F binding to TmrAB: did not affect binding of CP^Fs to TmrAB
[3]; C4F 50 nM + TmrAB 4 µM + competitor (CP^B 6 µM or C4^ATTO655 10 µM)
  Bound C4F peptide, fluorescence anisotropy: 0.045
[3]; CP^B 6 µM or C4^ATTO655 10 µM as competitor
  Competition of C4F peptide binding: interfered with C4F peptide binding

## RRYQKSTEL [R9LQK, reference compound]
[4]
  Effect of transported peptides on CP^F binding to TmrAB: did not affect binding of CP^Fs to TmrAB
